Experimental data from ChEMBL document CHEMBL1201862, “PubChem BioAssay data set” (2004).
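In this assay, cells in 96-well plates receive the compound at five concentrations for 48 hours. Endpoints are linearly interpolated between the surrounding concentrations. GI50: concentration for 50% inhibition of growth.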 Activity calls are given as the source filed them. Rule as the data show it: active = GI50 up to about 1.1 µM and inactive = higher.

Experiments:
Test in all cases: NCI tumour cell line growth inhibition, 48 h
RXF 393 = system: RXF 393
SK-MEL-28 = system: SK-MEL-28
NCI-H460 = system: NCI-H460
DMS-114 = system: DMS-114
NCI-H226 = system: NCI-H226
IGROV-1 = system: IGROV-1
MOLT-4 = system: MOLT-4
TK-10 = system: TK-10
HCC 2998 = system: HCC 2998
DMS-273 = system: DMS-273
A549 = system: A549
HT-29 = system: HT-29
SW-620 = system: SW-620
CCRF-CEM = system: CCRF-CEM
Malme-3M = system: Malme-3M
NCI-H23 = system: NCI-H23
U-251 = system: U-251
A498 = system: A498
SK-MEL-5 = system: SK-MEL-5
Hs-578T = system: Hs-578T

Measured: GI50

Cc1ccc(Nc2nc(C)c(C(/C=C/c3ccc(/C=C/C(=N/NC(=O)C[n+]4ccccc4)c4sc(Nc5ccc(C)cc5[N+](=O)[O-])nc4C)cc3)=N\NC(=O)C[n+]3ccccc3)s2)c([N+](=O)[O-])c1
inactive: RXF 393 > 100 µM | SK-MEL-28 > 100 µM | NCI-H460 > 100 µM | DMS-114 92.9 µM | NCI-H226 14.6 µM | IGROV-1 > 100 µM | MOLT-4 76.7 µM | TK-10 51.3 µM | HCC 2998 > 100 µM | DMS-273 > 100 µM | A549 > 100 µM | HT-29 > 100 µM | SW-620 > 100 µM | CCRF-CEM 32.3 µM | Malme-3M > 100 µM | NCI-H23 > 100 µM | U-251 > 100 µM

O=S(=O)(C1=CC(S(=O)(=O)c2ccccc2)COC1)c1ccccc1 (stereo unspecified)
inactive: RXF 393 > 100 µM | SK-MEL-28 > 100 µM | NCI-H460 > 100 µM | DMS-114 > 100 µM | IGROV-1 > 100 µM | MOLT-4 > 100 µM | TK-10 > 100 µM | HCC 2998 > 100 µM | DMS-273 > 100 µM | A549 > 100 µM | HT-29 > 100 µM | SW-620 > 100 µM | CCRF-CEM > 100 µM | Malme-3M > 100 µM | NCI-H23 > 100 µM | U-251 > 100 µM

NCCNCc1c2ccccc2c(CNCCN)c2ccccc12
inactive: RXF 393 15.7 µM | SK-MEL-28 > 10 µM | NCI-H460 6.97 µM | DMS-114 11.6 µM | IGROV-1 32.3 µM | MOLT-4 3.78 µM | TK-10 69 µM | HCC 2998 9.59 µM | A549 12.1 µM | A498 22.3 µM | HT-29 6.21 µM | SW-620 11.1 µM | CCRF-CEM 15.4 µM | Malme-3M 14 µM | NCI-H23 13.1 µM | U-251 22 µM | SK-MEL-5 26.4 µM

CCOC(=O)C1C(=O)c2ccccc2CN1Cc1ccccc1 (stereo unspecified)
inactive: SK-MEL-28 > 100 µM | NCI-H460 > 100 µM | DMS-114 > 100 µM | NCI-H226 > 100 µM | IGROV-1 > 100 µM | MOLT-4 > 100 µM | TK-10 > 100 µM | HCC 2998 > 100 µM | DMS-273 > 100 µM | A549 > 100 µM | HT-29 > 100 µM | SW-620 > 100 µM | CCRF-CEM > 100 µM | Malme-3M > 100 µM | NCI-H23 > 100 µM | U-251 > 100 µM | SK-MEL-5 > 100 µM

Cc1cnc2ccc(C)c([N+](=O)[O-])c2c1NCCCN(C)C
inactive: SK-MEL-28 > 100 µM | NCI-H460 > 100 µM | DMS-114 86.5 µM | NCI-H226 50 µM | MOLT-4 > 100 µM | TK-10 > 100 µM | HCC 2998 > 100 µM | DMS-273 > 100 µM | A549 > 100 µM | HT-29 > 100 µM | SW-620 > 100 µM | CCRF-CEM > 100 µM | Malme-3M > 100 µM | NCI-H23 > 100 µM | U-251 > 100 µM

CCSc1nc2sc(C)c(C)c2c(=O)n1-c1ccc(C(=O)O)cc1
inactive: RXF 393 25.5 µM | SK-MEL-28 54.5 µM | NCI-H460 60.1 µM | DMS-114 76.9 µM | NCI-H226 19.8 µM | IGROV-1 90.8 µM | MOLT-4 48.5 µM | TK-10 > 100 µM | HCC 2998 85.1 µM | A549 65.3 µM | A498 29.9 µM | HT-29 61 µM | SW-620 > 100 µM | CCRF-CEM 52.5 µM | Malme-3M > 100 µM | NCI-H23 38.3 µM | U-251 55.5 µM | SK-MEL-5 49 µM

CCCCCCCCSC(=O)NCCCC
inactive: RXF 393 21.5 µM | SK-MEL-28 29 µM | NCI-H460 34 µM | IGROV-1 > 100 µM | MOLT-4 23.2 µM | TK-10 46.7 µM | DMS-273 35 µM | A549 38.2 µM | A498 54.1 µM | HT-29 26.4 µM | SW-620 75.3 µM | CCRF-CEM 28.2 µM | Malme-3M 24.5 µM | NCI-H23 49.7 µM | U-251 35.5 µM | SK-MEL-5 22.2 µM

CC(C)C12Cc3c(ccc4ccccc34)OC1(C)Oc1ccc3ccccc3c1C2 (stereo unspecified)
inactive: RXF 393 > 100 µM | NCI-H460 > 100 µM | DMS-114 25.6 µM | NCI-H226 > 100 µM | IGROV-1 > 100 µM | MOLT-4 > 100 µM | TK-10 > 100 µM | DMS-273 > 100 µM | A549 > 100 µM | HT-29 > 100 µM | SW-620 > 100 µM | CCRF-CEM > 100 µM | Malme-3M > 100 µM | NCI-H23 > 100 µM | U-251 > 100 µM | SK-MEL-5 > 100 µM

CCOC(=O)C(=O)Nc1cc(Cl)c(Cl)cc1Cl
inactive: RXF 393 > 100 µM | SK-MEL-28 > 100 µM | NCI-H460 > 100 µM | DMS-114 > 100 µM | NCI-H226 > 100 µM | IGROV-1 > 100 µM | MOLT-4 > 100 µM | TK-10 > 100 µM | HCC 2998 > 100 µM | DMS-273 > 100 µM | HT-29 > 100 µM | SW-620 > 100 µM | Malme-3M > 100 µM | NCI-H23 > 100 µM | U-251 > 100 µM | SK-MEL-5 > 100 µM

CN(C)CN(C)c1nc(N(C)C)nc(N(C)CN(C)C)n1
inactive: RXF 393 19.5 µM | SK-MEL-28 25.8 µM | NCI-H460 57.3 µM | NCI-H226 > 100 µM | IGROV-1 > 100 µM | MOLT-4 26.2 µM | TK-10 > 100 µM | HCC 2998 > 100 µM | DMS-273 17.5 µM | A549 > 100 µM | A498 > 100 µM | HT-29 57.8 µM | SW-620 23.9 µM | CCRF-CEM 25.7 µM | NCI-H23 27.2 µM | U-251 > 100 µM | SK-MEL-5 51.1 µM

C=CC[C@H](C)CCC(=O)N1[C@H]2CC3CC[C@@]2(CS1(=O)=O)C3(C)C
inactive: RXF 393 49 µM | SK-MEL-28 > 100 µM | NCI-H460 30.5 µM | NCI-H226 51.5 µM | IGROV-1 > 100 µM | MOLT-4 17.3 µM | TK-10 > 100 µM | HCC 2998 49.2 µM | A549 39.8 µM | A498 > 100 µM | HT-29 18.8 µM | Hs-578T 30.6 µM | SW-620 79.8 µM | CCRF-CEM 18.7 µM | Malme-3M 46.8 µM | NCI-H23 22.7 µM | U-251 56.1 µM | SK-MEL-5 21.5 µM

CC(C)OC(=O)c1ccc(CCc2cc(O)c(Br)cc2O)cc1
inactive: RXF 393 15 µM | SK-MEL-28 13.9 µM | NCI-H460 18.6 µM | NCI-H226 18.7 µM | IGROV-1 9.2 µM | MOLT-4 7.94 µM | TK-10 16.9 µM | HCC 2998 16.1 µM | A549 20.3 µM | A498 21 µM | HT-29 18.7 µM | Hs-578T 14.6 µM | SW-620 8.65 µM | CCRF-CEM 3.92 µM | Malme-3M 17.2 µM | NCI-H23 8.85 µM | U-251 7.48 µM | SK-MEL-5 15.1 µM
